“And” between values parts separate entries of the source, which are not always exact repeats. Identical values can stand only once. Like-named read-outs stand apart in the source and are kept apart here.
How the values were obtained:
[1] = LogD, partition coefficient n-octanol/PBS; assay type: physicochemical; details: pH 7.4, 100 μM
Description: (§1) Table 3 In vitro physicochemical, stability and metabolism data. | column: Value

[2] = Half-life in PBS, simulated gastric fluid and simulated intestinal fluid; assay type: physicochemical; details: 1 μM
Description: as §1

Blood partitioning = assay type: in vitro ADME; details: rat, Sprague-Dawley, authors call the ratio not accurate
MCF-7/6 = assay: Chick heart invasion assay (3D confrontation culture); assay type: cell-based; details: Homo sapiens, MCF7/6; read-out: projected C16 EC50 value
Description: Our laboratories have been characterizing and validating 4-fluoro-3’,4’,5’-trimethoxychalcone or C16 as a novel invasion inhibitor for the study and potential treatment of metastatic cancer (Fig 1). C16 has nanomolar anti-invasive potency in the chick heart and Matrigel in vitro invasion models against several human cancer cell lines (MCF-7/6 breast cancer, BLM melanoma and SK-OV-3 ovarian carcinoma). […] Given its discovery in a phenotypic model, the biological target of C16 is unknown. We have differentiated the molecular mechanism of action of C16 from that of other antimetastatic agents, and are currently characterizing its biochemical interactions in detail.
Fig 1 Structure and biological activity of C16.

[3] = High-dose PK, single PO 300 mg/kg via oral gavage; assay type: in vivo; details: single 300 mg/kg oral gavage; for Individual whole blood concentration: animals 4-1 to 4-3
Procedure: On the morning of day 7, the water group received a single PO administration of 300 mg/kg C16 (10 mL/kg) for high-dose PK evaluation, using a 30 mg/mL solution of C16 in 10% Solutol HS-15 / 90% PEG 600 (prepared as described above). To that extent, blood was collected via the tail vein at the 30 and 60 min time point, and via cardiac exsanguination after 180 min (protocol as for other cohorts). Samples for hematological and biochemical analysis were also prepared. Afterward, animals were sacrificed by cervical dislocation.
Blood samples (25 μL) were collected via the tail vein or cardiac puncture (last time point). Blood was pipetted into a tube with 25 μL heparinized water (1 μL of sodium heparin (1000 units/mL) + 24 μL water) within 30 seconds of collection. The sample was pipetted up and down five times, immediately frozen on dry ice, and stored at -60°C to -80°C until analysis.
E.C. Whole blood C16 levels […]
BLOQ: below the limit of quantitation (0.5 ng/mL). Samples that were below the limit of quantification were not used in the calculation of
Table BB. […]

Q: Which results are given for `COc1cc(C(=O)/C=C/c2ccc(F)cc2)cc(OC)c1OC` [C16, 4-fluoro-3’,4’,5’-trimethoxychalcone]?
A: LogD [1]: 3.85; half-life ([2]; PBS, pH 7.4): >4 h; half-life ([2]; simulated gastric fluid): >1 h; half-life ([2]; simulated intestinal fluid): >4 h; blood plasma ratio at 1 μM (Blood partitioning): 9.2; EC50 (MCF-7/6): 10 nM and 0.00632 µg/mL; concentration at 0.5 h ([3]; male, CD-1, mouse, whole blood, po, 0.5 h, Average±SD): 32.3 ± 24.2 ng/mL; concentration at 1 h ([3]; male, CD-1, mouse, whole blood, po, 1 h, Average±SD): 28.3 ± 12.1 ng/mL; concentration at 3 h ([3]; male, CD-1, mouse, whole blood, po, 3 h, Average±SD, read-out: Whole blood concentration): 15.1 ± 2.9 ng/mL; Individual whole blood concentration ([3]; mouse, 0.5 h): 19.3 ng/mL and 60.2 ng/mL and 17.5 ng/mL; Individual whole blood concentration ([3]; mouse, 1 h): 28.5 ng/mL and 40.3 ng/mL and 16.2 ng/mL; Individual whole blood concentration ([3]; mouse, 3 h): 13.9 ng/mL and 13.1 ng/mL; concentration at 3 h ([3]; mouse, whole blood, po, 3 h, animals 4-1 to 4-3, read-out: Individual whole blood concentration): 18.4 ng/mL
